Experiments:
human 5-HT1A receptors = target: T1, human 5-HT1A receptors (Homo sapiens, UniProt P08908); assay: [3H] 8-OH-DPAT displacement from 5-HT1A receptor (CHO cells); format: binding; conditions: displacement of [3H] 8-OH-DPAT, CHO cells stably transfected with human 5-HT1A; read-out: 5-HT1A Receptor Affinity KI
T1 construct: expressed in transfected cells; host or cells: CHO cells
T1 sequence (P08908 1-422): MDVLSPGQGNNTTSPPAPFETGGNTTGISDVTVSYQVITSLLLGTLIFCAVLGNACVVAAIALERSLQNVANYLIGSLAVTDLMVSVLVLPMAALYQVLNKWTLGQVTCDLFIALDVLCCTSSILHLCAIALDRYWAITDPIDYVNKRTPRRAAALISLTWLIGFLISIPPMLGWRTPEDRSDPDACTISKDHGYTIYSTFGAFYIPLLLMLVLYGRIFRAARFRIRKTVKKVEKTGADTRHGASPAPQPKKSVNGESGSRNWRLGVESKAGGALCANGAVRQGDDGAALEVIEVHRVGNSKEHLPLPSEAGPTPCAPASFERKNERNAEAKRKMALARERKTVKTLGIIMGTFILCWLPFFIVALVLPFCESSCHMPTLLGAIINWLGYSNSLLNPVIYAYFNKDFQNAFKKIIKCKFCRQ
Text: High affinity for the serotonin 5-HT1A receptor was established by testing the claimed compound's ability to displace [^3H] 8-OH-DPAT (dipropylaminotetralin) from the 5-HT1A serotonin receptor following a modification of the procedure of Hall et al., J. Neurochem. 44, 1685 (1985) which utilizes CHO cells stably transfected with human 5-HT1A receptors.

[1] = target: T2, cloned human 5-HT1A receptors (Homo sapiens, UniProt P08908); assay: 35S-GTPγS binding assay, antagonist activity versus 8-OH-DPAT; format: biochemical; conditions: reversal of 8-OH-DPAT effect on 35S-GTPγS binding; for IC50: read-out: 5-HT1A Function IC50
T2 construct: expressed in transfected cells
T2 sequence (P08908 1-422): T1 sequence (P08908 1-422)
Description: Antagonist activity at 5-HT1A receptors was established by using a ^35S-GTPγS binding assay similar to that used by Lazareno and Birdsall (Br. J. Pharmacol. 109: 1120, 1993), in which the test compound's ability to affect the binding of ^35S-GTPγS to membranes containing cloned human 5-HT1A receptors was determined. Agonists produce an increase in binding whereas antagonists produce no increase but rather reverse the effects of the standard agonist 8-OH-DPAT. The test compound's maximum inhibitory effect is represented as the Imax, while its potency is defined by the IC50.

## Cc1nc2ccc3c(c2o1)OC(CN1C2CCC1CC(O)(c1ccc4ccccc4c1)C2)CO3 (stereo not drawn) [Example 3, 8-{[2-Methyl-7,8-dihydro[1,4]dioxino[2,3-g][1,3]benzoxazol-8-yl]methyl}-3-(2-naphthyl)-8-azabicyclo[3.2.1]octan-3-ol]
Human 5-HT1A receptors
  Ki: 3.71 nM
[1]
  5-HT1A Function Imax (maximum inhibitory effect): 95%
  IC50: 27 nM

## Cc1nc2ccc3c(c2o1)OC(CN1C2CCC1CC(O)(c1cccc(C(F)(F)F)c1)C2)CO3 (stereo not drawn) [Example 2, 8-{[2-Methyl-7,8-dihydro[1,4]dioxino[2,3-g][1,3]benzoxazol-8-yl]methyl}-3-[3-(trifluoromethyl)phenyl]-8-azabicyclo[3.2.1]octan-3-ol]
other
  melting point: 148 to 150 °C
Human 5-HT1A receptors
  Ki: 0.77 nM

## Cc1nc2ccc3c(c2o1)OC(CN1C2CCC1CC(O)(c1ccccc1)C2)CO3 (stereo not drawn) [Example 1, 8-{[2-Methyl-7,8-dihydro[1,4]dioxino[2,3-g][1,3]benzoxazol-8-yl]methyl}-3-phenyl-8-azabicyclo[3.2.1]octan-3-ol]
other
  melting point: 203 to 205 °C
Human 5-HT1A receptors
  Ki: 0.54 nM
[1]
  5-HT1A Function Imax (maximum inhibitory effect): 76%
  IC50: 53 nM
